Measured values as given in US20230116972A1, “CD38 MODULATORS AND METHODS OF USE THEREOF” (Cytokinetics, Inc., priority 2021, published 2023).
Where two headings read alike, the source gives them in different places.

What was measured:
Type in all cases: in vitro ADME
CYP3A4 = target: T1, CYP3A4 (Homo sapiens, UniProt P08684); test: direct inhibition of CYP450 in human liver microsomes (midazolam and testosterone probes)
T1 construct: from tissue; host or cells: human liver microsomes (pooled in the time-dependent assay)
T1 sequence (P08684 whole entry): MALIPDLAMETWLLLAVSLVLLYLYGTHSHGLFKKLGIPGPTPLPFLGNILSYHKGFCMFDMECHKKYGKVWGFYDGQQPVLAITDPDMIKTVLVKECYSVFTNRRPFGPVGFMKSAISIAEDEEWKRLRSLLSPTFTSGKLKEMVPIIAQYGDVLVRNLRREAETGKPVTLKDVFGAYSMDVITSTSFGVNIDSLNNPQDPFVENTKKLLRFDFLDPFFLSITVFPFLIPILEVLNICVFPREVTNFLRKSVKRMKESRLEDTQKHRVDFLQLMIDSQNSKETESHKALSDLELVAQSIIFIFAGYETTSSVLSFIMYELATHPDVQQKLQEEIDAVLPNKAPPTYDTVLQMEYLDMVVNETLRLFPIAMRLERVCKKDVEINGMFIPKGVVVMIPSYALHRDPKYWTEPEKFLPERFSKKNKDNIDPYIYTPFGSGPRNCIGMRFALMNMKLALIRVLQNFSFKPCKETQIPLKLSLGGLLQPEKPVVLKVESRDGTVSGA
Description: (§1) Direct inhibition: […] A Perspective of the Pharmaceutical Research and Manufacturers of America”, Drug Metabolism and Disposition, 37 (7): 1355, 2009). For 3A4, the % activity was measured using both midazolam and testosterone as probes. Each compound at 3, 10, and 50 μM was incubated with HLM, NADPH and CYP isoenzyme specific probe substrates at 37° C. Inhibition of the probe substrate metabolism was quantified using LC/MS/MS. […] Known chemical inhibitors specific for the individual CYP isoenzymes were evaluated in parallel as positive controls and these compounds produced CYP inhibition consistent with published results (Walsky & Obach RS. “Validated assays for human cytochrome P450 activities”. Drug Metab Dispos. 32(6):647-60, 2004). Note that, in Tables 6 and 7, the “Compound No” corresponds to the compound numbers in Table 1.

CYP2D6 = target: T2, CYP2D6 (Homo sapiens, UniProt P10635); test: direct inhibition of CYP450 in human liver microsomes; conditions: for activity at 3 µM / activity at 10 µM / activity at 50 µM: % of non-inhibited control, read-out: CYP2D6 T0 % activity; for IC50: estimated from 3, 10, 50 uM, read-out: CYP2D6 T0 estimated IC50
T2 construct: from tissue; host or cells: human liver microsomes (pooled in the time-dependent assay)
T2 sequence (P10635 whole entry): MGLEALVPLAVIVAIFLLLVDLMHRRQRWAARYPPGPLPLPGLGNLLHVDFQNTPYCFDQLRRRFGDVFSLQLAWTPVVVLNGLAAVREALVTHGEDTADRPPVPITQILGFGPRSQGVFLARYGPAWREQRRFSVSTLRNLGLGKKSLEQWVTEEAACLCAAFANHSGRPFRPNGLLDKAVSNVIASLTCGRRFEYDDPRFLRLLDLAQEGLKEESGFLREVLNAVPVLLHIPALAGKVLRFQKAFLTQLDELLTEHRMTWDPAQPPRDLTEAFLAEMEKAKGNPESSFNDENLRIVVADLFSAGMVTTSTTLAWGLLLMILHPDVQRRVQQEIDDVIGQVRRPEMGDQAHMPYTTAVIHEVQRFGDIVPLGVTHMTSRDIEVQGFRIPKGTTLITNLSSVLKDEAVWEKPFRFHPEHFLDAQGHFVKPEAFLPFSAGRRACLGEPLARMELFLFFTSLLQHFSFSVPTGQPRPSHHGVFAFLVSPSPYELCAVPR
Description: as §1

CYP2C19 = target: T3, CYP2C19 (Homo sapiens, UniProt P33261); test: as above; conditions: for activity at 3 µM / activity at 10 µM / activity at 50 µM: % of non-inhibited control, read-out: CYP2C19 T0 % activity; for IC50: estimated from 3, 10, 50 uM, read-out: CYP2C19 T0 estimated IC50
T3 construct: from tissue; host or cells: human liver microsomes (pooled in the time-dependent assay)
T3 sequence (P33261 whole entry): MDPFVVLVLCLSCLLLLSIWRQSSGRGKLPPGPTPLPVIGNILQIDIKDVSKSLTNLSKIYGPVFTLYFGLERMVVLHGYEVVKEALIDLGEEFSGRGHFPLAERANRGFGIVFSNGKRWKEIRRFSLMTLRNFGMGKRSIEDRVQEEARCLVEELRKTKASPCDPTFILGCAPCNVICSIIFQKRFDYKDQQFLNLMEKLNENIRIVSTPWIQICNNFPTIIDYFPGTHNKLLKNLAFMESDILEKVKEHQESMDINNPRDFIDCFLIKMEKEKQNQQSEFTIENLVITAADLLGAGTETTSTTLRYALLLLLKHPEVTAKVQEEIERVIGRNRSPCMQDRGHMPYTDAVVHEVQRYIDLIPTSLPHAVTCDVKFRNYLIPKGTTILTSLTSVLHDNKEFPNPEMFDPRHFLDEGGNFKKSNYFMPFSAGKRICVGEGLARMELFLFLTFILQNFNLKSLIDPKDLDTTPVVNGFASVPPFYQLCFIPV
Description: as §1

CYP2B6 = target: T4, CYP2B6 (Homo sapiens, UniProt P20813); test: as above; conditions: for activity at 3 µM / activity at 10 µM / activity at 50 µM: % of non-inhibited control, read-out: CYP2B6 T0 % activity; for IC50: estimated from 3, 10, 50 uM, read-out: CYP2B6 T0 estimated IC50
T4 construct: from tissue; host or cells: human liver microsomes (pooled in the time-dependent assay)
T4 sequence (P20813 1-491): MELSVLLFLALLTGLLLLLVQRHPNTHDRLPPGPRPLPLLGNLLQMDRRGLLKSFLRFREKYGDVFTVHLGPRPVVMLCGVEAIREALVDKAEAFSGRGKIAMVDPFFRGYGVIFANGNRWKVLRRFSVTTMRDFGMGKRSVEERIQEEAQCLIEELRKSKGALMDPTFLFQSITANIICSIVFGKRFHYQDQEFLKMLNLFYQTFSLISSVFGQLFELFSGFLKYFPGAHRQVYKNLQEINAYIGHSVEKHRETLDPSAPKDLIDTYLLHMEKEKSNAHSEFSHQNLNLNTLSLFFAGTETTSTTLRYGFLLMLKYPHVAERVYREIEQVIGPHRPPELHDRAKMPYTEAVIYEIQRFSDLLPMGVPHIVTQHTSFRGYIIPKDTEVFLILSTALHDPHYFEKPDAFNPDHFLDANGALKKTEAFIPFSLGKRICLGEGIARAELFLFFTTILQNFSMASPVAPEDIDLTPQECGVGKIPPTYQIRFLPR
Description: as §1

CYP1A2 = target: T5, CYP1A2 (Homo sapiens, UniProt P05177); test: as above
T5 construct: from tissue; host or cells: human liver microsomes (pooled in the time-dependent assay)
T5 sequence (P05177 1-516): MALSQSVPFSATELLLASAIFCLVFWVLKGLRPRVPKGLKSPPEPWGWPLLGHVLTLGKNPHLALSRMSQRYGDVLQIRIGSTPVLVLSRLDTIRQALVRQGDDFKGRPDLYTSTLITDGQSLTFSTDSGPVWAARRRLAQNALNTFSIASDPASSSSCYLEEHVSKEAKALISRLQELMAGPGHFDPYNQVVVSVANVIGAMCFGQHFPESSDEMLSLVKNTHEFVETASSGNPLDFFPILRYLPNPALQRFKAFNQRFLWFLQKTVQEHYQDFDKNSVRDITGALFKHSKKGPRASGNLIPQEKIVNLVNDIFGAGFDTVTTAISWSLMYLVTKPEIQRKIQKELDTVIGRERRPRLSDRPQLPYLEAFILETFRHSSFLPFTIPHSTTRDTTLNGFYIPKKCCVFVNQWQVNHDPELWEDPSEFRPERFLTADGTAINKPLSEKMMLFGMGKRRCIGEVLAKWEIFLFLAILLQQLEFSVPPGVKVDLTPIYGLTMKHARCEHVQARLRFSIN
Description: as §1

CYP2C9 = target: T6, CYP2C9 (Homo sapiens, UniProt P11712); test: as above; conditions: for activity at 3 µM / activity at 10 µM / activity at 50 µM: % of non-inhibited control, read-out: CYP2C9 T0 % activity; for IC50: estimated from 3, 10, 50 uM, read-out: CYP2C9 T0 estimated IC50
T6 construct: from tissue; host or cells: human liver microsomes (pooled in the time-dependent assay)
T6 sequence (P11712 whole entry): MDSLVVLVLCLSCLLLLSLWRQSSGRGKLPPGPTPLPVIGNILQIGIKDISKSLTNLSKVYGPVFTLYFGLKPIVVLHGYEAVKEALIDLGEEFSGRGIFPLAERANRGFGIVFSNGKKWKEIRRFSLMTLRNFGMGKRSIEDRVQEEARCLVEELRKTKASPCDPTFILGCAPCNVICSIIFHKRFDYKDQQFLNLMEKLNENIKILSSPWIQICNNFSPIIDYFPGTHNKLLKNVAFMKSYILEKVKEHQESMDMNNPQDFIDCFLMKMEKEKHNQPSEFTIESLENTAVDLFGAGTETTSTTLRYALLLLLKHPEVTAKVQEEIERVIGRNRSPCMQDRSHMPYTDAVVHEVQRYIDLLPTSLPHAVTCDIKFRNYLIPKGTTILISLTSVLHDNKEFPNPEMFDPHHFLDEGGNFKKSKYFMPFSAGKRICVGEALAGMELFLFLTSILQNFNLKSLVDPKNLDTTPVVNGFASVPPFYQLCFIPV
Description: as §1

[1] = midazolam probe, read-out: CYP3A4-M T0 % activity
[2] = testosterone probe, read-out: CYP3A4-T T0 % activity
[3] = midazolam probe, read-out: CYP3A4-M T0 estimated IC50
[4] = testosterone probe, read-out: CYP3A4-T T0 estimated IC50

Structure (SMILES)	activity at 3 µM (CYP3A4; [1]) [%]	activity at 3 µM (CYP3A4; [2]) [%]	activity at 10 µM (CYP3A4; [1]) [%]	activity at 10 µM (CYP3A4; [2]) [%]	activity at 50 µM (CYP3A4; [1]) [%]	activity at 50 µM (CYP3A4; [2]) [%]	IC50 (CYP3A4; [3]) [µM]	IC50 (CYP3A4; [4]) [µM]	activity at 3 µM (CYP2D6) [%]	activity at 10 µM (CYP2D6) [%]	activity at 50 µM (CYP2D6) [%]	IC50 (CYP2D6) [µM]	activity at 3 µM (CYP2C19) [%]	activity at 10 µM (CYP2C19) [%]	activity at 50 µM (CYP2C19) [%]	IC50 (CYP2C19) [µM]	activity at 3 µM (CYP2B6) [%]	activity at 10 µM (CYP2B6) [%]	activity at 50 µM (CYP2B6) [%]	IC50 (CYP2B6) [µM]	further results
CO[C@H]1CC[C@H](NC(=O)c2nccc(-n3ccnc3)n2)CC1 [Compound 145, 4-(1H-Imidazol-1-yl)-N-((1r,4r)-4-methoxycyclohexyl)pyrimidine-2-carboxamide]	99	96	89	98	75	95	> 50	> 50	93	73	47	< 50	92	93	89	> 50	101	98	99	> 50	IC50 (CYP1A2): > 50 µM; activity at 3 µM (CYP1A2; human, microsomes): 94%; activity at 10 µM (CYP1A2; human, microsomes): 92%; activity at 50 µM (CYP1A2; human, microsomes): 79%; activity at 3 µM (CYP2C9): 97%; activity at 10 µM (CYP2C9): 99%; activity at 50 µM (CYP2C9): 96%; IC50 (CYP2C9): > 50 µM
[2H]c1nc([2H])n(-c2nc(C)cc(C(=O)N[C@H]3CC[C@H](OCCOC)CC3)n2)c1[2H] [Comparator Compound A, reference compound]	98	100	99	97	91	103	> 50	> 50	95	82	42	< 50	77	49	17	~10	103	98	57	> 50	activity at 3 µM (CYP1A2; 3 uM, human liver microsomes, % of non-inhibited control, read-out: CYP1A2 T0 % activity): 98%; activity at 10 µM (CYP1A2; 10 uM, human liver microsomes, % of non-inhibited control, read-out: CYP1A2 T0 % activity): 98%; activity at 50 µM (CYP1A2; 50 uM, human liver microsomes, % of non-inhibited control, read-out: CYP1A2 T0 % activity): 92%; IC50 (CYP1A2; human liver microsomes, estimated from 3, 10, 50 uM, read-out: CYP1A2 T0 estimated IC50): > 50 µM; activity at 3 µM (CYP2C9): 88%; activity at 10 µM (CYP2C9): 64%; activity at 50 µM (CYP2C9): 24%; IC50 (CYP2C9): < 50 µM
